In publication PMC9021288 (Nature Communications, 2022):
Values joined by “and” are separate entries in the source; they are usually repeats but may differ in a detail not shown here. Equal values may be shown once. Read-outs that look alike come from different tables or passages of the source.

What was measured:
[1] = tested on: P. falciparum NF54 asexual blood-stage parasites; experiment: 72-h asexual blood-stage replication assay (SYBR Green); format: cell-based, Plasmodium falciparum; set-up: key to asexual blood stages growth, dose-response: % growth; DMSO control = 100%, DHA/epoxomicin-treated = no growth
[2] = tested on: cryopreserved human primary hepatocytes; experiment: Human hepatocyte clearance (relay assay); conditions: for % Remaining: 10 µM, single replicates
Excerpt: Briefly, cryopreserved human primary hepatocytes were thawed and cultured as described above.

[3] = tested on: P. falciparum NF54 rings and schizonts; experiment: Stage-specific activity on synchronized ring and schizont cultures; format: cell-based, Plasmodium falciparum
Method: Asynchronous NF54 parasites were cultured in a semi-automated shaker system[63] and synchronized once with 5% D-sorbitol. […] This yielded a parasite culture with ≥ 90% rings. To assess the schizont-stage activity of MMV693186, the initial synchronized culture was treated again with sorbitol 7 h later. Subsequently, parasites were cultured for another 17 h to yield a parasite culture of ≥ 90% early schizont stages. The ring and schizont synchronized cultures were diluted to 0.5% and then incubated with either 50 nM DHA or 50 nM MM693183 for 24 h in duplicate. Subsequently, the drug was washed out and parasites were cultured for another 24 h. Parasitemia was determined using Giemsa-stained thin smears at 0 h, 24 h, and 48 h after drug exposure.

[4] = tested on: P. falciparum NF54-HGL gametocytes; experiment: Gametocyte viability assay (72 h, luminescence); format: cell-based, Plasmodium falciparum
Method: (§1) Gametocyte viability assays on NF54-HGL parasites were performed using an adapted high-throughput protocol as previously described[15],[64]. In short, asexual blood-stage parasite cultures were set up at 1% parasitemia in a semi-automated shaker system at 5% hematocrit. From day four until day eight or nine, parasites were treated with 50 mM N-acetyl glucosamine to eliminate all asexual blood-stage parasites. Subsequently, gametocytes were isolated by a Percoll density gradient centrifugation. At day 11, gametocytes were seeded (5,000 per well) in 30 µl in white 384-well plates containing 30 µl of compounds diluted in medium (0.1% DMSO). After a 72-h incubation, 30 µl of ONE-Glo reagent (Promega) was added according to manufacturer’s protocol and luminescence was quantified using the BioTek Synergy 2 Plate reader. Values were normalized to DMSO- and epoxomicin or dihydroartemisinin-treated controls.

[5] = tested on: P. falciparum T648M / T627A AcAS mutant gametocytes; format: cell-based, Plasmodium falciparum
Method: as §1

[6] = tested on: P. falciparum NF54-HGL, dT648M, cT648M, cT627A asexual blood stages; experiment: Asexual drug-sensitivity of AcAS mutant parasites; format: cell-based, Plasmodium falciparum
Method: Replication assays were performed using a SYBR Green method as described previously. Briefly, asynchronous parasites were diluted to 0.83% parasitemia, 3% hematocrit in 30 µl medium, and added to 30 µl of diluted compounds in medium (0.1% DMSO final concentration) in black 384-wells plates. After a 72-h incubation, 30 µl of SYBR Green diluted in lysis buffer was added according to the manufacturer’s protocol (Life Technologies). Fluorescence intensity was measured on a BioTek Synergy 2 Plate Reader after 1-h incubation and was normalized to a DMSO control (100% growth) and DHA- or epoxomicin-treatment (no growth). […] Parasite survival was assessed by flow cytometry on an Accuri C6 (BD Biosciences) with BD C6 Plus software using SYBR Green and MitoTracker Deep Red FM (Life Technologies) as nuclear stain and vital dye, respectively, and data were analyzed using FlowJo (10.5.0). […] Luminescence was measured after 72 h using the Renilla-Glo(R) Luciferase Assay System (Promega E2750) and the GlomAX® Discover Multimode Microplate Reader (Promega). The luminescence values were normalized to DMSO vehicle (100% growth) and 200 nM chloroquine-treated (no growth) samples as controls.
The mutation found in selected drug-resistant parasites was verified by introducing the point mutations in AcAS (T648M and T627A) in NF54-HGL parasites using a CRISPR-Cas9 system as described previously. The oligonucleotides for the guide RNA and the donor template were cloned into a pDC2-based plasmid containing a Cas9 and guide cassette, using the BbsI and EcoRI/AatII restriction sites, respectively. Donor DNA was amplified by (overlap-extension) PCR amplification from genomic P. falciparum DNA and oligonucleotides for the guide RNAs were ordered (Sigma-Aldrich). The correct sequence and integration of both inserts were confirmed by Sanger Sequencing.

## C[C@@H](CNC(=O)[C@H](O)C(C)(C)CO)NC(=O)c1cc(F)c(F)cc1F [MMV693183]
[1]
  in vitro-determined IC99: 36.1 nM
[1]; Log concentration (M) -8.5
  asexual blood stages growth, dose-response: 38.5 and 30.4 and 47.25 and 30.7
[1]; Log concentration (M) -9
  asexual blood stages growth, dose-response: 74.05 and 74.55 and 77.05 and 67.5
[1]; Log concentration (M) -9.5
  asexual blood stages growth, dose-response: 92.6 and 74.65 and 93.65 and 69.75
[1]; Log concentration (M) -10
  asexual blood stages growth, dose-response: 93.45 and 77.05 and 101.75 and 92
[1]; asexual blood stages NF54 parasites, read-out: IC50
  IC50: 2.8 nM
[1]; per replicate experiment, read-out: IC50, asexual blood stages
  IC50: 2.37 nM and 2.81 nM and 2.66 nM and 2.15 nM
[2]; hepatocyte donor HC02, 0 h
  % Remaining: 100.0%
[2]; hepatocyte donor HC02, 6 h
  % Remaining: 77.4% and 91.4%
[2]; hepatocyte donor HC02, 24 h
  % Remaining: 90.3% and 124.4%
[2]; hepatocyte donor HC02, 48 h
  % Remaining: 87.4% and 110.8%
[2]; hepatocyte donor HC02, 72 h
  % Remaining: 63.9% and 86.8%
[2]; hepatocyte donor HC06, 0 h
  % Remaining: 100.0%
[2]; hepatocyte donor HC06, 3 h
  % Remaining: 77.2% and 88.0%
[2]; hepatocyte donor HC06, 6 h
  % Remaining: 79.3% and 91.3%
[2]; hepatocyte donor HC06, 24 h
  % Remaining: 87.0% and 115.0%
[2]; hepatocyte donor HC06, 48 h
  % Remaining: 64.3% and 81.2%
[2]; hepatocyte donor HC06, 72 h
  % Remaining: 61.0% and 75.3%
[2]; hepatocyte donor HC425, 0 h
  % Remaining: 100.0%
[2]; hepatocyte donor HC425, 6 h
  % Remaining: 79.3% and 88.2%
[2]; hepatocyte donor HC425, 24 h
  % Remaining: 68.0% and 93.2%
[2]; hepatocyte donor HC425, 48 h
  % Remaining: 73.6% and 94.3%
[2]; hepatocyte donor HC425, 72 h
  % Remaining: 68.2% and 91.6%
[2]; hepatocyte donor HC1010, 0 h
  % Remaining: 100.0%
[2]; hepatocyte donor HC1010, 1 h
  % Remaining: 120.3% and 86.1% and 104.1% and 69.6%
[2]; hepatocyte donor HC1010, 6 h
  % Remaining: 88.7% and 55.7% and 88.0% and 45.9%
[2]; hepatocyte donor HC1010, 24 h
  % Remaining: 90.4% and 62.9% and 77.2% and 55.3%
[2]; hepatocyte donor HC1010, 48 h
  % Remaining: 70.7% and 54.4% and 57.7% and 44.1%
[2]; hepatocyte donor HC1010, 72 h
  % Remaining: 34.1% and 43.9% and 31.3% and 51.9%
[2]; donor HC02
  CLint: 0.082 µL/min/million cells
[2]; donor HC06
  CLint: 0.142 µL/min/million cells
[2]; donor HC425
  CLint: 0.0695 µL/min/million cells
[2]; human, hepatocytes
  Human hepatocyte CLint: 0.4 µl/min/10^6 cells
[2]; range of donors
  human hepatocyte clearance, four donors: 0.07 to 0.4 µl/min/10^6 cells
[3]; 50 nM, 24 h
  activity against asexual stages: active against both early and late asexual blood stages
[3]; Time (h) 0
  Parasitemia, rings culture: 0.4
  Parasitemia, schizonts culture: 0.2
[3]; Time (h) 24
  Parasitemia, rings culture: 0
  Parasitemia, schizonts culture: 0
[4]; Log concentration (M) -7.5
  Sexual blood stages viability, dose-response: 36.75 and 49.45 and 51.8
[4]; Log concentration (M) -8
  Sexual blood stages viability, dose-response: 69.2 and 83.95 and 95.65
[4]; Log concentration (M) -8.5
  Sexual blood stages viability, dose-response: 82.4 and 91.1 and 100.8
[4]; Log concentration (M) -9
  Sexual blood stages viability, dose-response: 98.1 and 92.5 and 103.2
[4]; Log concentration (M) -9.5
  Sexual blood stages viability, dose-response: 107.25 and 92.05 and 100.45
[4]; Log concentration (M) -10
  Sexual blood stages viability, dose-response: 92.05 and 87.2 and 94.15
[4]; per replicate experiment, read-out: IC50, sexual blood stages
  IC50: 17.8 nM and 36 nM and 36.8 nM
[5]; CRISPR cT648M
  IC50 shift sexual: > 50 ×
[5]; selected resistant (dT648M) gametocytes
  IC50 shift gametocytes: > 50 ×
[6]
  sensitivity of T627A AcAS mutant: also resistant to MMV693183
[6]; CRISPR cT648M
  IC50 shift asexual: 49 ×
[6]; NF54 selected at 7 nM
  IC50 shift: 77 x
[6]; selected resistant parasites vs parent, asexual growth assay
  IC50 shift: 13-77 ×
